Molecular target: T1, GST-tagged truncated human mutant G2019S LRRK2 (Homo sapiens, UniProt Q5S007, G2019S)
T1 construct: GST-tagged truncated human mutant G2019S LRRK2; purchased Life Technologies Corporation (Carlsbad, CA)
Assay: LRRK2 G2019S Km ATP LanthaScreen assay
Format: biochemical
Conditions: 134 μM ATP (Km ATP), LRRKtide substrate, mean of several tests; for IC50: read-out: LRRK2 pIC50 (converted)
In short: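 IC50 values are means of repeat runs, fitted with a 4-parameter logistic to the 520/495 nm TR-FRET ratio from a Tb-labeled anti-phospho-LRRKtide antibody added with EDTA. Reactions ran 90 min at room temperature at Km ATP (134 μM) with fluorescein-LRRKtide, after 15-min compound preincubation with truncated GST-tagged G2019S LRRK2.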

T1 sequence (Q5S007 970-2527 G2019S limits assumed): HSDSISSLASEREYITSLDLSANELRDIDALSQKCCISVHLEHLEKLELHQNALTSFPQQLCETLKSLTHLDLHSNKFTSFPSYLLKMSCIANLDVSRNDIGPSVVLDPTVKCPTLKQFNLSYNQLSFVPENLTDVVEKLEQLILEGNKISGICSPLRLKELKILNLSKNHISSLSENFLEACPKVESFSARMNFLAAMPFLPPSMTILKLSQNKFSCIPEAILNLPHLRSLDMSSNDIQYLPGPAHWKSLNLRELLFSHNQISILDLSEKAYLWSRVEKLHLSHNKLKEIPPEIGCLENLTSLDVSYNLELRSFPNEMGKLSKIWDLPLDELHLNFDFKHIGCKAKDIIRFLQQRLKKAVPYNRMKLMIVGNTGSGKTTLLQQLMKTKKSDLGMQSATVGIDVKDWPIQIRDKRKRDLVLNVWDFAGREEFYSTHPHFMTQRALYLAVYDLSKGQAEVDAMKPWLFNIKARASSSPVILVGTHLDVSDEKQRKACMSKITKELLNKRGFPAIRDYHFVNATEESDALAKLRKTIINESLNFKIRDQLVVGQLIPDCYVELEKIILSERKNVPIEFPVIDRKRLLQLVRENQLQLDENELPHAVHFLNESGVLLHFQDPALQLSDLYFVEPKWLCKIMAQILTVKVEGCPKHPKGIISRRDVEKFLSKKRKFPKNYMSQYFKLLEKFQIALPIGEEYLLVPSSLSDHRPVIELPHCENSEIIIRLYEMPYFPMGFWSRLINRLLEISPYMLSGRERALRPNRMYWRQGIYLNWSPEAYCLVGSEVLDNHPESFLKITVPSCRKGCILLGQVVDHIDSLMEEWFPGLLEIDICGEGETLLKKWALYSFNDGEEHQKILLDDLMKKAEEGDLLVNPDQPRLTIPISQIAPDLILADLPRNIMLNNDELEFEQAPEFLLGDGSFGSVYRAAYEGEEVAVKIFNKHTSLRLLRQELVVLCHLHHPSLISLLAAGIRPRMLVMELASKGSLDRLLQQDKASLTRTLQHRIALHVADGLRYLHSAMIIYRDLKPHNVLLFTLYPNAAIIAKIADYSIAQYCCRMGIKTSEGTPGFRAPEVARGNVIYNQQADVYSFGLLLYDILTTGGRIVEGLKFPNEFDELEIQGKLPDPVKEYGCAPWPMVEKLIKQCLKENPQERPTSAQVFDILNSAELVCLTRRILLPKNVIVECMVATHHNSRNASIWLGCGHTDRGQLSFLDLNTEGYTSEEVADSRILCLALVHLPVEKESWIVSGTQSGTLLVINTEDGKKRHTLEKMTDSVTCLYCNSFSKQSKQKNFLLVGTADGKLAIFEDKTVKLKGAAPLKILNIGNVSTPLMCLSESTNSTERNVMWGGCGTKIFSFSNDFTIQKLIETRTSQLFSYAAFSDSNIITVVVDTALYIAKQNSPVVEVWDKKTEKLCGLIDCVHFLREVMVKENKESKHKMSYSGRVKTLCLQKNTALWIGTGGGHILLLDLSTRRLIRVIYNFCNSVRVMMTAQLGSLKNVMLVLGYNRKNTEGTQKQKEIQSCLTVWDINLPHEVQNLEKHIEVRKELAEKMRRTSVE

Compound	LRRK2 pIC50	IC50 [nM]
O=C(Nc1cc2cc(N3CCC(N4CC(F)C4)CC3)c(Cl)cc2cn1)C1CC12CCOCC2 (stereo not drawn) [Ex-4.6]	8.61	
O=C(Nc1cc2cc(N3CCC(N4CC(F)(F)C4)CC3)c(Cl)cc2cn1)C1CC12CCOCC2 (stereo not drawn) [Ex-4.7]	7.93	
CC1(C#N)CCN(c2cc3cc(NC(=O)C4CC45CCOCC5)ncc3cc2Cl)CC1 (stereo not drawn) [Ex-4.8]	6.68	
CCC1C(C(=O)Nc2cc3cc(N4CCC(F)(C#N)CC4)c(Cl)cc3cn2)C1c1cnn(C)c1 (stereo not drawn) [Ex-4.10]	7.29	
Cn1cc(C2CC2C(=O)Nc2cc3cc(N4CCC(F)(C#N)CC4)c(Cl)cc3cn2)cn1 (stereo not drawn) [Ex-4.11]	7.39	
Cc1cc2cnc(NC(=O)C3CC34CCOCC4)cc2cc1N1CCN(C2(C)COCC2O)[C@@H](C)C1 (stereo partly drawn) [Ex-6.10]	9.26	
CC1(N2CCN(c3cc4cc(NC(=O)C5CC56CCOCC6)ncc4cc3C3CC3)CC2)COCC1O (stereo not drawn) [Ex-6.11]	9.57	
CCC1(N2CCN(c3cc4cc(NC(=O)C5CC56CCOCC6)ncc4cc3C)CC2)COCC1O (stereo not drawn) [Ex-6.12]	9.67	
O=C(Nc1cc2cc(N3CCN(C4COC4)CC3)c(Cl)cc2cn1)C1CC1 [Ex-8.1, N-(7-chloro-6-(4-(oxetan-3-yl)piperazin-1-yl)isoquinolin-3-yl)cyclopropanecarboxamide]	7.99	
CN1CCN(c2cc3cc(NC(=O)C4CC4)ncc3cc2Cl)CC1 [Ex-8.2]	7.53	
COCCC(=O)Nc1cc2cc(N3CCN(C4(C)COCC4O)CC3)c(Cl)cc2cn1 (stereo not drawn) [Ex-9.1]	8.12	
CC1(N2CCN(c3cc4cc(NC(=O)C5CCOCC5)ncc4cc3Cl)CC2)COCC1O (stereo not drawn) [Ex-9.2]	8.74	
CC(C)C1CC(C(=O)Nc2cc3cc(N4CCN(C5(C)COCC5O)CC4)c(Cl)cc3cn2)C1 (stereo not drawn) [Ex-9.3]	8.58	
CC1(N2CCN(c3cc4cc(NC(=O)C5CCCO5)ncc4cc3Cl)CC2)COCC1O (stereo not drawn) [Ex-9.4]	8.40	
CC(C)OC1CCC(C(=O)Nc2cc3cc(N4CCN(C5(C)COCC5O)CC4)c(Cl)cc3cn2)OC1 (stereo not drawn) [Ex-9.5]	8.28	
CC1C(C(=O)Nc2cc3cc(N4CCN(C5(C)CCOC5)CC4)c(Cl)cc3cn2)C1c1cnn(C)c1 (stereo not drawn) [Ex-9.6]		1
Cc1cc2cnc(NC(=O)C3CC3c3ccccn3)cc2cc1N1CCN(C2(C)COCC2F)CC1 (stereo not drawn) [Ex-9.19]	10.09	
CCC1C(C(=O)Nc2cc3cc(N4CCN(C5(C)COCC5F)CC4)c(C)cc3cn2)C1c1cnn(C)c1 (stereo not drawn) [Ex-9.20]		0.0813
Cc1cc2cnc(NC(=O)C3CC3c3ccccn3)cc2cc1N1CCN(C2(C)CCOC2)CC1 (stereo not drawn) [Ex-9.21]	10.09	
(1R,2R or 1S,2S)-N-[6-[4-((3R,4R or 3S,4S)-4-fluoro-3-methyl-tetrahydrofuran-3-yl)piperazin-1-yl]-7-methyl-3-isoquinolyl]-2-(1-methylpyrazol-3-yl)cyclopropanecarboxamide [Ex-10.59]	10.09	
(1R,2R,3R, or 1R,2S,3R, or 1S,2R,3S, or 1S,2S,3S)-N-[6-[4-((3R,4R or 3S,4S)-4-fluoro-3-methyl-tetrahydrofuran-3-yl)piperazin-1-yl]-7-methyl-3-isoquinolyl]-2-methyl-3-(1-methylpyrazol-4-yl)cyclopropanecarboxamide [Ex-10.58]	10.09	
(1R,2R,3R, or 1R,2S,3R, or 1S,2R,3S, or 1S,2S,3S)-N-[7-chloro-6-[4-((3R,4R or 3S,4S)-4-fluoro-3-methyl-tetrahydrofuran-3-yl)piperazin-4-ium-1-yl]-3-isoquinolyl]-2-methyl-3-(2-pyridyl)cyclopropanecarboxamide [Ex-10.71]	7.72	
(1R,2R,3R, or 1R,2S,3R, or 1S,2R,3S, or 1S,2S,3S)-N-[7-chloro-6-[4-((3R,4R or 3S,4S)-4-fluoro-3-methyl-tetrahydrofuran-3-yl)piperazin-4-ium-1-yl]-3-isoquinolyl]-2-methyl-3-(2-pyridyl)cyclopropanecarboxamide [Ex-10.72]	10.09	
(3R or 3S)-N-[6-[4-((3R,4R or 3S,4S)-4-fluoro-3-methyl-tetrahydrofuran-3-yl)piperazin-1-yl]-7-methyl-3-isoquinolyl]-5,5-dimethyl-tetrahydrofuran-3-carboxamide [Ex-10.93]	9.90	
(3R or 3S)-N-[6-[4-((3R,4R or 3S,4S)-4-fluoro-3-methyl-tetrahydrofuran-3-yl)piperazin-1-yl]-7-methyl-3-isoquinolyl]-5,5-dimethyl-tetrahydrofuran-3-carboxamide [Ex-10.94]	9.40	
(3R or 3S)-N-[6-[4-((3R,4R or 3S,4S)-4-fluoro-3-methyl-tetrahydrofuran-3-yl)piperazin-1-yl]-7-methyl-3-isoquinolyl]-5,5-dimethyl-tetrahydrofuran-3-carboxamide [Ex-10.95]	9.64	
(3R or 3S)-N-[6-[4-((3R,4R or 3S,4S)-4-fluoro-3-methyl-tetrahydrofuran-3-yl)piperazin-1-yl]-7-methyl-3-isoquinolyl]-5,5-dimethyl-tetrahydrofuran-3-carboxamide [Ex-10.96]	8.99	
